Measured values: patent publication US4238620A, “Dibenz[b,f]oxepin and dibenzo[b,f]thiepin derivatives, process for preparation thereof, method of using the same, and compositions thereof” (priority 1978, dated 1980)
Entries after “also recorded” stand apart in the source; their conditions may differ.

Legend:
[1] = cited from earlier work
[2] = cited from earlier work; remark: listed apart in the source
[3] = tested on: Ultraviolet-induced erythema in guinea-pigs; test: Ultraviolet-induced erythema in guinea-pigs (UVE method), acute inflammation; type: in vivo; conditions: Cavia porcellus, po, read-out: Anti-inflammatory activity ED50, acute inflammation, UVE
Experimental: (§1) (1) Effect on acute inflammation:
(b) Ultraviolet-induced erythema in guinea-pigs (UVE method)
The test was carried out according to the method described in Arch. Int. Pharmacodyn. Ther., 116, 261 (1958).

[4] = Gastrointestinal ulcer formation in fed rats (ulcerogenicity); type: in vivo; conditions: rat, in vivo, po, fed rats; read-out: UD50 (50% ulcer forming dose)
Experimental: (§2) TEST 4. ULCEROGENICITY IN GASTROINTESTINAL TRACT
(§3) Gastrointestinal ulcer formation in fed rats
(§4) The test was carried out according to the method described in Science, 170, 183 (1970).

[5] = tested on: Gastrointestinal ulcer formation in fed rats; test: as above; type: in vivo
Experimental: as §2, §3, §4

[6] = Overall comparison of anti-inflammatory, analgesic and antipyretic activities (Tests 1 to 3); type: in vivo, rats; guinea-pigs; conditions: for anti-inflammatory, analgesic and antipyretic activities compared with indomethacin: vs indomethacin (compound 3)
Text: (§5) From these diagrams, the correlation between the pharmacological activity of each compound and its ulcerogenicity and toxicity, i.e. the safety margin of each compound, can be clearly seen. In these Figures, the lines and letters have the following meanings:
(§6) The following conclusions can be drawn from Tables I to III and FIGS. 1 and 2. In the following description, the therapeutic index means LD50 /ED50 (or MED), and the safety index means UD50 /ED50 (or MED). The safety margin of a given compound is broader when it has larger therapeutic and or safety indices.

[7] = type: in vivo; conditions: for therapeutic index compared with indomethacin: vs indomethacin
Text: In the following description, the therapeutic index means LD50 /ED50 (or MED), and the safety index means UD50 /ED50 (or MED).

rats = test: Overall comparison of lethal toxicity (Test 5); type: in vivo; conditions: for toxicity compared with indomethacin (in words): vs indomethacin
Experimental: (a) Single administration in rats
(§7) (b) Repeated administrations in rats
(§8) Test compounds were orally administered once daily for 5 days, and LD50 -value was calculated from the mortality on the 6th day.

[8] = tested on: Felt pellet-induced granuloma formation in rats; test: Felt pellet-induced granuloma formation in rats (FGF method), subacute and chronic inflammation; type: in vivo; conditions: Rattus norvegicus, po, read-out: Minimum Effective Dose, subacute and chronic inflammation, FGF*
Experimental: (§9) (2) Effect on subacute and chronic inflammations:
(b) Felt pellet-induced granuloma formation in rats (FGF method)
The test was carried out according to the method described in J. Amer. Pharm. Assoc., 46, 515 (1957) and Chem. Pharm. Bull., 23, 1446 (1975).

[9] = tested on: Carrageenin-induced hind paw oedema in rats; test: Carrageenin-induced hind paw oedema in rats (CAR method), acute inflammation; type: in vivo; conditions: Rattus norvegicus, po, read-out: Anti-inflammatory activity ED50, acute inflammation, CAR
Experimental: as §1
(a) Carrageenin-induced hind paw oedema in rats (CAR method)
The test was carried out according to the method described in Proc. Soc. Exp. Biol. Med., 111, 544 (1962).

[10] = tested on: Acetic acid (AcOH)-induced writhing in rats; test: Acetic acid (AcOH)-induced writhing in rats (ACW method), analgesic activity; type: in vivo; conditions: Rattus norvegicus, po, read-out: Analgesic activity ED50, ACW
Experimental: (§10) TEST 2. ANALGESIC ACTIVITY
(b) Acetic acid (AcOH)-induced writhing in rats (ACW method)
The test was carried out according to the method described in Arzneim. Forsch., 25, 1505 (1975).

in vivo [11] = conditions: rat, po, rats, once daily for 5 days, mortality on 6th day, read-out: LD50 Repeated
Experimental: as §7, §8

[12] = tested on: AgNO3-induced joint pain in rats; test: AgNO3-induced joint pain in rats (AGP method), analgesic activity; type: in vivo; conditions: Rattus norvegicus, po, read-out: Analgesic activity ED50, AGP
Experimental: as §10
(a) AgNO3 -induced joint pain in rats (AGP method)
The test was carried out according to the method described in J. Pharmacol. Expt. Ther., 98, 19 (1950)

[13] = tested on: Yeast-induced fever in rats; test: Yeast-induced fever in rats (YEF method), antipyretic activity; type: in vivo; conditions: Rattus norvegicus, po, read-out: Antipyretic activity ED50, YEF
Experimental: TEST 3. ANTIPYRETIC ACTIVITY
Yeast-induced fever in rats (YEF method)
The test was carried out according to the method described in Arzneim. Forsch., 13, 338 (1963).

[14] = tested on: adjuvant-induced arthritis in rats; test: Therapeutic activity on adjuvant-induced arthritis in rats (AAT method), subacute and chronic inflammation; type: in vivo; conditions: Rattus norvegicus, po, read-out: Minimum Effective Dose, subacute and chronic inflammation, AAT*
Experimental: as §9
(a) Therapeutic activity on adjuvant-induced arthritis in rats (AAT method)
The test was carried out according to the method described in Brit. J. Pharmacol., 21, 127 (1963) and Japan J. Pharmacol., 23, 58 (1973).

[15] = Safety index (UD50/ED50 or MED), separation of activity from ulcerogenicity; type: in vivo; conditions: for separation of anti-inflammatory, analgesic and antipyretic activities from ulcerogenicity: FIGS. 1 and 2, vs indomethacin
Text: as §5, §6

in vivo [16] = conditions: rat, po, rats, single administration, 7th day, read-out: LD50 Single

Row | SMILES | ED50 [3] | TD50 [4] | anti-inflammatory, analgesic and antipyretic activities compared with indomethacin [6] | therapeutic index compared with indomethacin [7] | toxicity compared with indomethacin (in words) (rats) | minimal effective dose [8] | ED50 [9] | ED50 [10] | LD50 at 144 h (in vivo [11]) | ED50 [12] | ED50 [13] | minimal effective dose [14] | separation of anti-inflammatory, analgesic and antipyretic activities from ulcerogenicity [15] | also measured
1 | O=C(O)Cc1ccc2c(c1)CC(=O)c1ccccc1S2 [10,11-dihydro-10-oxodibenzo[b,f]thiepin-2-acetic acid] |  |  |  |  |  |  |  |  |  |  |  |  |  | analgesic activity relative to aspirin [1]: equivalent to that of aspirin; anti-inflammatory activity relative to phenylbutazone [2]: 0.4 time
2 | Cc1ccc2c(c1)CC(=O)c1cc(C(C)C(=O)O)ccc1S2 (racemic) [compound C, dl-2-(8-Methyl-10,11-dihydro-11-oxodibenzo[b,f]thiepin-2-yl)propionic acid] | 0.85 mg/kg | 2.76 mg/kg | equivalent or superior to those of indomethacin | far larger therapeutic indices than indomethacin | far weaker than those of indomethacin | 1 mg/kg/day | 2.08 mg/kg | 0.84 mg/kg | > 12 mg/kg | 1.41 mg/kg | 0.015 mg/kg | < 0.2 mg/kg/day | more separated from ulcerogenicity in the gastrointestinal tract than in indomethacin; also recorded: Especially good separation | ulcerogenicity relative to compound 2 ([5]; fraction of that of compound 2): about 1/4; pharmacological activities compared with compound 2 ([6]; vs compound 2): comparable or slightly inferior to those of compound 2; average therapeutic index relative to compound 2 ([7]; LD50/ED50 (or MED), vs compound 2): more than 5 times; breadth of safety margin compared with compound 2 ([7]; safety margin, vs compound 2): far superior to compound 2; toxicity relative to compound 2 (rats; fraction of that of compound 2): less than 1/6; average safety index relative to compound 2 ([15]; UD50/ED50 (or MED), vs compound 2): about 4 times
3 | Cc1ccc2c(c1)CC(=O)c1cc(C(C)C(=O)OCCOCCO)ccc1O2 (racemic) [compound E, 2-(2-Hydroxyethoxy)ethyl dl-2-(8-methyl-10,11-dihydro-11-oxodibenz[b,f]oxepin-2-yl)propionate] | 1.41 mg/kg | 4.04 mg/kg | equivalent or superior to those of indomethacin | far larger therapeutic indices than indomethacin | far weaker than those of indomethacin | 2 mg/kg/day | 3.61 mg/kg | 0.27 mg/kg | > 16 mg/kg | 3.8 mg/kg | 0.055 mg/kg | 0.2 mg/kg/day | more separated from ulcerogenicity in the gastrointestinal tract than in indomethacin; also recorded: Especially good separation | ulcerogenicity and toxicity compared with compound A ([5]; ulcerogenicity together with toxicity, vs compound A): weaker than those of compound A; pharmacological activities compared with compound 1 ([6]; vs compound 1): equivalent to, or more potent, than those of compound 1; pharmacological activities compared with compound A ([6]; vs compound A): somewhat inferior to those of compound A; average safety and therapeutic indices compared with compound A ([7]; safety and therapeutic indices, vs compound A): comparable to those of compound A; breadth of safety margin compared with compound 1 ([7]; safety margin, vs compound 1): better; LD50 at 168 h (in vivo [16]): 219 mg/kg
